Source: ChEMBL document CHEMBL3045835, “Comparative study of conventional and microwave-assisted synthesis of some Schiff bases and their potential as antimicrobial agents” (2012)
Values after ≈ are worked out from the molar mass of the structure shown.

Assays:
Type in all cases: functional
Bacillus pumilus [1] = experiment: Antibacterial activity against Bacillus pumilus MTCC 1456 at 500 ug/ml after 18 hr by cup-plate method; details: MTCC 1456, 18 h, read-out: DIZ
Bacillus subtilis [2] = experiment: Antibacterial activity against Bacillus subtilis MTCC 441 at 1500 ug/ml after 18 hr by cup plate method; details: MTCC 441, 18 h, read-out: DIZ
Escherichia coli [3] = experiment: Antibacterial activity against Escherichia coli MTCC 1573 at 100 ug/ml after 18 hr by cup-plate method; details: MTCC 1573, 18 h, read-out: DIZ
Escherichia coli [4] = experiment: Antibacterial activity against Escherichia coli MTCC 1573 after 24 hr by broth dilution method; details: MTCC 1573, 24 h
Pseudomonas fluorescens [5] = experiment: Antibacterial activity against Pseudomonas fluorescens MTCC 2421 after 24 hr by broth dilution method; details: MTCC 2421, 24 h
Penicillium chrysogenum [6] = experiment: Antifungal activity against Penicillium chrysogenum MTCC 161 at 200 ug/ml after 18 hr by cup-plate method; details: MTCC 161, 18 h, read-out: DIZ
Pseudomonas aeruginosa [7] = experiment: Antibacterial activity against Pseudomonas aeruginosa MTCC 424 after 24 hr by broth dilution method; details: MTCC 424, 24 h
Bacillus pumilus [8] = experiment: Antibacterial activity against Bacillus pumilus MTCC 1456 after 24 hr by broth dilution method; details: MTCC 1456, 24 h
Aspergillus niger [9] = experiment: Antifungal activity against Aspergillus niger MTCC 2546 at 500 ug/ml after 18 hr by cup-plate method; details: MTCC 2546, 18 h, read-out: DIZ
Escherichia coli [10] = experiment: Antibacterial activity against Escherichia coli MTCC 1573 at 1000 ug/ml after 18 hr by cup-plate method; details: MTCC 1573, 18 h, read-out: DIZ
Pseudomonas aeruginosa [11] = experiment: Antibacterial activity against Pseudomonas aeruginosa MTCC 424 at 1500 ug/ml after 18 hr by cup-plate method; details: MTCC 424, 18 h, read-out: DIZ
Micrococcus luteus [12] = experiment: Antibacterial activity against Micrococcus luteus MTCC 1538 at 200 ug/ml after 18 hr by cup-plate method; details: MTCC 1538, 18 h, read-out: DIZ
Staphylococcus aureus [13] = experiment: Antibacterial activity against Staphylococcus aureus MTCC 1430 at 500 ug/ml after 18 hr by cup-plate method; details: MTCC 1430, 18 h, read-out: DIZ
Micrococcus luteus [14] = experiment: Antibacterial activity against Micrococcus luteus MTCC 1538 at 100 ug/ml after 18 hr by cup-plate method; details: MTCC 1538, 18 h, read-out: DIZ
Aspergillus niger [15] = experiment: Antifungal activity against Aspergillus niger MTCC 2546 at 1500 ug/ml after 18 hr by cup-plate method; details: MTCC 2546, 18 h, read-out: DIZ
Bacillus subtilis [16] = experiment: Antibacterial activity against Bacillus subtilis MTCC 441 at 200 ug/ml after 18 hr by cup plate method; details: MTCC 441, 18 h, read-out: DIZ
Escherichia coli [17] = experiment: Antibacterial activity against Escherichia coli MTCC 1573 at 200 ug/ml after 18 hr by cup-plate method; details: MTCC 1573, 18 h, read-out: DIZ
Pseudomonas aeruginosa [18] = experiment: Antibacterial activity against Pseudomonas aeruginosa MTCC 424 at 100 ug/ml after 18 hr by cup-plate method; details: MTCC 424, 18 h, read-out: DIZ
Penicillium chrysogenum [19] = experiment: Antifungal activity against Penicillium chrysogenum MTCC 161 at 500 ug/ml after 18 hr by cup-plate method; details: MTCC 161, 18 h, read-out: DIZ
Pseudomonas aeruginosa [20] = experiment: Antibacterial activity against Pseudomonas aeruginosa MTCC 424 at 200 ug/ml after 18 hr by cup-plate method; details: MTCC 424, 18 h, read-out: DIZ
Staphylococcus aureus [21] = experiment: Antibacterial activity against Staphylococcus aureus MTCC 1430 at 100 ug/ml after 18 hr by cup-plate method; details: MTCC 1430, 18 h, read-out: DIZ
Bacillus subtilis [22] = experiment: Antibacterial activity against Bacillus subtilis MTCC 441 after 24 hr by broth dilution method; details: MTCC 441, 24 h
Staphylococcus aureus [23] = experiment: Antibacterial activity against Staphylococcus aureus MTCC 1430 at 1500 ug/ml after 18 hr by cup-plate method; details: MTCC 1430, 18 h, read-out: DIZ
Aspergillus niger [24] = experiment: Antifungal activity against Aspergillus niger MTCC 2546 after 24 hr by broth dilution method; details: MTCC 2546, 24 h
Pseudomonas fluorescens [25] = experiment: Antibacterial activity against Pseudomonas fluorescens MTCC 2421 at 1500 ug/ml after 18 hr by cup-plate method; details: MTCC 2421, 18 h, read-out: DIZ
Pseudomonas aeruginosa [26] = experiment: Antibacterial activity against Pseudomonas aeruginosa MTCC 424 at 1000 ug/ml after 18 hr by cup-plate method; details: MTCC 424, 18 h, read-out: DIZ
Aspergillus niger [27] = experiment: Antifungal activity against Aspergillus niger MTCC 2546 at 1000 ug/ml after 18 hr by cup-plate method; details: MTCC 2546, 18 h, read-out: DIZ

## Cc1cc(/N=C/c2cccc3ccccc23)no1
Bacillus pumilus [1]
  zone of inhibition at 500 µg/mL: 16 mm
Bacillus subtilis [2]
  zone of inhibition at 1500 µg/mL: 20 mm
Escherichia coli [3]
  zone of inhibition at 100 µg/mL: 12 mm
Escherichia coli [4]
  MIC: 300 µg/mL (≈ 1270 µM)
Pseudomonas fluorescens [5]
  MIC: 300 µg/mL (≈ 1270 µM)
Penicillium chrysogenum [6]
  zone of inhibition at 200 µg/mL: 16 mm
Pseudomonas aeruginosa [7]
  MIC: 300 µg/mL (≈ 1270 µM)
Bacillus pumilus [8]
  MIC: 300 µg/mL (≈ 1270 µM)
Aspergillus niger [9]
  zone of inhibition at 500 µg/mL: 19 mm
Escherichia coli [10]
  zone of inhibition at 1000 µg/mL: 15 mm
Pseudomonas aeruginosa [11]
  zone of inhibition at 1500 µg/mL: 20 mm
Micrococcus luteus [12]
  zone of inhibition at 200 µg/mL: 18 mm
Staphylococcus aureus [13]
  zone of inhibition at 500 µg/mL: 15 mm
Micrococcus luteus [14]
  zone of inhibition at 100 µg/mL: 16 mm
Aspergillus niger [15]
  zone of inhibition at 1500 µg/mL: 21 mm
Bacillus subtilis [16]
  zone of inhibition at 200 µg/mL: 16 mm
Escherichia coli [17]
  zone of inhibition at 200 µg/mL: 13 mm
Pseudomonas aeruginosa [18]
  zone of inhibition at 100 µg/mL: 14 mm
Penicillium chrysogenum [19]
  zone of inhibition at 500 µg/mL: 18 mm
Pseudomonas aeruginosa [20]
  zone of inhibition at 200 µg/mL: 16 mm
Staphylococcus aureus [21]
  zone of inhibition at 100 µg/mL: 13 mm
Bacillus subtilis [22]
  MIC: 300 µg/mL (≈ 1270 µM)
Staphylococcus aureus [23]
  zone of inhibition at 1500 µg/mL: 20 mm
Aspergillus niger [24]
  MIC: 300 µg/mL (≈ 1270 µM)
Pseudomonas fluorescens [25]
  zone of inhibition at 1500 µg/mL: 19 mm
Pseudomonas aeruginosa [26]
  zone of inhibition at 1000 µg/mL: 18 mm
Aspergillus niger [27]
  zone of inhibition at 1000 µg/mL: 20 mm
